Results from ChEMBL document CHEMBL1138703, “Allosteric potentiators of the metabotropic glutamate receptor 2 (mGlu2). Part 2: 4-thiopyridyl acetophenones as non-tetrazole containing mGlu2 receptor potentiators” (Bioorg Med Chem Lett, 2004).

Legend:
[1] = target: T1, Metabotropic glutamate receptor 2 (Homo sapiens, UniProt Q14416); assay: Binding affinity towards human metabotropic glutamate receptor 2 determined by [35S]GTP gamma S binding assay; format: functional
Target sequence in this assay (Q14416 whole entry): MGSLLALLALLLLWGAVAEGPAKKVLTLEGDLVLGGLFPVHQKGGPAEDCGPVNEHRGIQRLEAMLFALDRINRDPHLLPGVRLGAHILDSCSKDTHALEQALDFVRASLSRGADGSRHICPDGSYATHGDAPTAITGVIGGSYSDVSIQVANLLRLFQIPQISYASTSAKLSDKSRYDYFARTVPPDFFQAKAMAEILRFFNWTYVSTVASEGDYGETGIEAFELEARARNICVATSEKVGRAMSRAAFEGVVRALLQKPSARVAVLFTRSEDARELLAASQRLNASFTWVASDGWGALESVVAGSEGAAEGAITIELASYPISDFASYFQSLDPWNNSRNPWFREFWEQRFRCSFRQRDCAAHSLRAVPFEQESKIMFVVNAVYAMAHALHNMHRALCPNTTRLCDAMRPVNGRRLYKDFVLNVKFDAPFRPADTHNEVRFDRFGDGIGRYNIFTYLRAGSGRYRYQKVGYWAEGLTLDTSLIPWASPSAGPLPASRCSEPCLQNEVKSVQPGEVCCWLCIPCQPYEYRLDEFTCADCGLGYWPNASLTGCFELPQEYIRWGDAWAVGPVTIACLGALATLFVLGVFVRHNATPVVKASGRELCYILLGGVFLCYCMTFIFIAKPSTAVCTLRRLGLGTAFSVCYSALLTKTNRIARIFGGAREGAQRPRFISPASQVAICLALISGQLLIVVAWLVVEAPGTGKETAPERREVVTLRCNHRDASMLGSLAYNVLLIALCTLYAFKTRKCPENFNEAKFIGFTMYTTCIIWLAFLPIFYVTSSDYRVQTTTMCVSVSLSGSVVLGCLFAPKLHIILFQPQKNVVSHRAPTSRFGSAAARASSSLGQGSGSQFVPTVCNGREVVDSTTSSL

[2] = target: T1, Metabotropic glutamate receptor 2; assay: Potentiation as percent of maximum glutamate response at 1 mM
Target sequence in this assay (Q14416 19-872 limits assumed): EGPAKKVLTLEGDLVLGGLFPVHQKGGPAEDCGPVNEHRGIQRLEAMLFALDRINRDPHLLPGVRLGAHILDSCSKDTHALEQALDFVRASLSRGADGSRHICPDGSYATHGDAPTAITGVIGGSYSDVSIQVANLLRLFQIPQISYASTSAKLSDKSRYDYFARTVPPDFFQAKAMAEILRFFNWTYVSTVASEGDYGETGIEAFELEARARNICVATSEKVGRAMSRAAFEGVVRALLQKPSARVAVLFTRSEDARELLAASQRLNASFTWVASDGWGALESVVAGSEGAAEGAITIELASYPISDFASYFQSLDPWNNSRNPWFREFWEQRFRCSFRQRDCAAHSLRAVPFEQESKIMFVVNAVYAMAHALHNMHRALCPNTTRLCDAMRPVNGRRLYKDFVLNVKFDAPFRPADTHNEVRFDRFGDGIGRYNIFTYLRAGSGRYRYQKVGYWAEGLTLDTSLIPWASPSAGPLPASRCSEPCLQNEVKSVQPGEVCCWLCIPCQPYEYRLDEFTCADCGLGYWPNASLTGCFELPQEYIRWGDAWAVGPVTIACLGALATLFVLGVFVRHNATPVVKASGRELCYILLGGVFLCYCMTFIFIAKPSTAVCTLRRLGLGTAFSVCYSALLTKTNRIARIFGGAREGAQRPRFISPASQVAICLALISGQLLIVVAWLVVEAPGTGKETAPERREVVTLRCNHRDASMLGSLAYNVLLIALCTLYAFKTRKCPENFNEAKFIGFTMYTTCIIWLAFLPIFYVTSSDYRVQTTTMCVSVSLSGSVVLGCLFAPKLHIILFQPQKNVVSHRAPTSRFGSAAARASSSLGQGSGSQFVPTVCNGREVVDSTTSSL

[3] = Ratio of brain to plasma levels was determined upon administration at 20 mpk intraperitoneally after 2 h; format: ADME; details: rat, brain and plasma, ip, 20 mg/kg
[4] = Total clearance in rat plasma upon administration at 2 mpk iv or 10 mpk po; format: ADME, organism-based; details: 2 mg/kg
[5] = Bioavailability in rat (dose 2 mg/kg i.v. and 10 mg/kg p.o.); format: ADME, organism-based; details: in vivo, po
[6] = Compound level in rat brain was determined upon administration at 2 mpk iv or 10 mpk po; format: ADME, organism-based; details: in vivo, read-out: Concentration in Brain
[7] = target: T1, Metabotropic glutamate receptor 2; assay: Binding affinity for human metabotropic glutamate receptor 2 in [35S]GTP gamma S binding assay; not active at < 10 uM; format: functional
Target sequence in this assay (Q14416 whole entry): as the sequence (Q14416 whole entry) above

| EC50 [1] | Potentiation [2] | Kp at 2 h [3] | clearance [4] | bioavailability [5] | concentration [6] | EC50 [7] | Structure (SMILES) |
| --- | --- | --- | --- | --- | --- | --- | --- |
| 4550 nM | 24% | – | – | – | – | – | Cc1c(OCCCCOc2ccccc2)ccc(C(=O)CC(C)C)c1O |
| – | – | 0.01 | 33 mL/min/kg | 63% | – | – | CCCc1c(OCCCCOc2ccc(-c3nnn[nH]3)cc2)ccc(C(C)=O)c1O |
| 384 nM | 18% | – | – | – | – | – | Cc1c(OCCCCOc2cccc(F)c2F)ccc(C(=O)CC(C)C)c1O |
| 575 nM | 67% | – | – | – | – | – | CC(C)CC(=O)c1ccc(OCCCCOc2cccnc2)c(Br)c1O |
| – | – | 0.15 | 70 mL/min/kg | < 1% | 10 nM | – | COc1ccccc1Oc1ccc(N(Cc2cccnc2)S(=O)(=O)CC(F)(F)F)cc1 |
| 340 nM | 33% | 1.1 | 33 mL/min/kg | 3% | 400 nM | – | Cc1c(OCCCCSc2ccncc2)ccc(C(=O)CC(C)C)c1O |
| 3850 nM | 40% | – | – | – | – | – | Cc1c(OCCCCOc2ccncc2)ccc(C(=O)CC(C)C)c1O |
| 558 nM | 88% | – | 75 mL/min/kg | 0% | – | – | CC(C)CC(=O)c1ccc(OCCCCOc2cccc(F)c2F)c(Br)c1O |
| 1720 nM | 46% | – | – | – | – | – | Cc1c(OCCCCOc2cccnc2)ccc(C(=O)CC(C)C)c1O |
| 1530 nM | 21% | – | – | – | – | – | Cc1c(OCCCCSc2ccccn2)ccc(C(=O)CC(C)C)c1O |
| 1500 nM | 53% | – | – | – | – | – | CC(C)CC(=O)c1ccc(OCCCCOc2ccccc2)c(Br)c1O |
| 677 nM | 38% | – | – | – | – | – | Cc1c(OCc2ccccc2Sc2ccncc2)ccc(C(=O)CC(C)C)c1O |
| 4240 nM | 18% | – | – | – | – | – | Cc1c(OCCCCOc2ccc(-n3cncn3)cc2)ccc(C(=O)CC(C)C)c1O |
| 1060 nM | 38% | – | – | – | – | – | Cc1c(OCc2ccc(Sc3ccncc3)cc2)ccc(C(=O)CC(C)C)c1O |
| 3270 nM | 33% | – | – | – | – | – | Cc1c(OCCCCOc2ccccn2)ccc(C(=O)CC(C)C)c1O |
| – | – | – | – | – | – | Not Active | Cc1c(OCCCSc2ccncc2)ccc(C(=O)CC(C)C)c1O |
| 676 nM | 82% | – | – | – | – | – | CC(C)CC(=O)c1ccc(OCCCCSc2ccncc2)c(Br)c1O |
| 819 nM | 68% | 1.2 | – | – | 330 nM | – | Cc1c(OCc2cccc(CSc3ccncc3)c2)ccc(C(=O)CC(C)C)c1O |
| 1090 nM | 26% | – | – | – | – | – | Cc1c(OCCCCSc2cccnc2)ccc(C(=O)CC(C)C)c1O |
| – | – | – | – | – | – | Not Active | Cc1c(OCCCCCSc2ccncc2)ccc(C(=O)CC(C)C)c1O |
| 770 nM | 78% | – | – | – | – | – | Cc1c(OCc2ccc(CSc3ccncc3)cc2)ccc(C(=O)CC(C)C)c1O |
| 578 nM | 79% | 0.21 | – | – | 340 nM | – | Cc1c(OCc2ccc(Sc3ccncc3)cc2)ccc(C(=O)CC(C)(C)C)c1O |
| 1990 nM | 30% | – | – | – | – | – | Cc1c(OCCCCOc2ccccc2F)ccc(C(=O)CC(C)C)c1O |
| 890 nM | 58% | – | – | – | – | – | Cc1c(OCc2cccc(Sc3ccncc3)c2)ccc(C(=O)CC(C)C)c1O |
| – | – | 0.03 | 15 mL/min/kg | 59% | – | – | Cc1c(OCCCCOc2ccc(-c3nn[nH]n3)cc2)ccc(C(=O)CC(C)C)c1O |
